Patent publication US20250009844A1, “MATURATION OF MUCOSAL DEFENSE AND GUT/LUNG FUNCTION IN THE PRETERM INFANT” (Novozymes A/S, priority 2017, published 2025)
Entries after “also recorded” stand apart in the source; their conditions may differ. No end group written: not given here.

Columns and labels:
[1] = Therapeutic high fat diet model in diet-induced obese mice, weight and fat percentage (Example 2); assay type: in vivo; conditions: HFD plus hBD-2 vs standard HFD
From the text: The overall design of the study is shown in FIG. 1, lower panel, “Therapeutic study”. Mice and diets. The experiment elucidates the effect of hBD-2 and HD5 on the microbiota in diet-induced obese mice. A run-in period of 13 weeks where mice were fed a very HFD (60% energy from fat) preceded the intervention. Only mice meeting the criteria of a minimum of 12 gram weight gain (approximately 50% of initial bodyweight) during the run-in period were included in the final analyses. […] They were exposed to all experimental tests, but excluded from the analyses.
Treatment regimen. Before the intervention all mice were MR scanned. Cages of mice were allocated to experimental groups based on their fat mass. All subsequent measures were paired with data from the same mouse before the intervention. A LFD (low fat diet) reference group was running in parallel. As controls for the intervention 2 additional groups were included: a) very HFD and b) LFD. Experimental mice stayed on the very HFD during the intervention. The mice were on the experimental diet for 10 weeks. They were co-housed throughout the experiment, 4 mice per cage, 3 cages per group. All tests ran over 3 days, 1 cage per group per day.

[2] = tested on: postnatal day 14 C57BL/6J mice; experiment: Dithizone/Klebsiella induced necrotizing enterocolitis murine model (Example 9); assay type: in vivo
From the text: FIG. 40. Histological scoring system for evaluation of severity of necrotizing enterocolitis in a murine model of Klebsiella/Dithizone induced necrotizing enterocolitis. >2 indicates significant gut inflammation.
Incidence of necrotizing enterocolitis and IL-22 concentration in a murine model of necrotizing enterocolitis. Intestinal mucosal injury consistent with human necrotizing enterocolitis was induced by a combination of Dithizone followed by Klebsiella pneumonia challenge by oral gavage in postnatal day 14 C57BL/6J mice. The severity of necrotizing enterocolitis was assessed by a histological scoring system with a score of >2 indicating significant damage (FIG. 40). Neither Dithizone nor K. pneumonia challenge induced mucosal injury by themselves, but the combination of Dithizone followed by K. pneumonia challenge induced severe and statistically significant mucosal damage measured 16 hours post challenge (FIG. 41).

human beta defensin 2 (GIGDPVTCLKSGAICHPVFCPRRYKQIGTCGLPGTKCCKKP; ends and bridges not checked; cysteine pairing not given here; listed as Homo sapiens) [hBD-2]
Weight gain ([1]; first 4 weeks post dietary intervention, p=0.07): tended to gain less weight the first 4 weeks post dietary intervention, although not significant
Weight gain ([1]; from week 4 to the end of the study period, p=0.82): gained similar weight as the standard HFD group
Concentration of IL-22 ([2]; 1.2 mg/kg one hour post challenge, 9 hours post challenge): statistically significant gut mucosa protective increase of IL-22; also recorded: statistically significantly increased
Incidence of necrotizing enterocolitis (histological score >2) ([2]; oral 1.2 mg/kg one dose one hour post K. pneumonia challenge, 16 hours post challenge): statistically significant reduction of the incidence of necrotizing enterocolitis; also recorded: dramatically and statistically significantly reduced the incidence of necrotizing enterocolitis to normal
